Reference: ChEMBL document CHEMBL4376853, “Synthesis and structure-activity relationship studies of α-naphthoflavone derivatives as CYP1B1 inhibitors” (Eur J Med Chem, 2020)

Key:
Homo sapiens [1] = organism: Homo sapiens; assay: Selectivity index, ratio of IC50 for human recombinant CYP1A1 to IC50 for human recombinant CYP1B1 using 7-ethoxyresorufin as substrate in presence of glucose-6-phosphate, glucose-6-phosphate dehydrogenase and NADPH-generating system by fluorometry
Cytochrome P450 1B1 [2] = target: T1, Cytochrome P450 1B1 (Homo sapiens, UniProt Q16678); assay: Inhibition of human recombinant CYP1B1 using 7-ethoxyresorufin as substrate in presence of glucose-6-phosphate, glucose-6-phosphate dehydrogenase and NADPH-generating system incubated for 35 mins by fluorometry
T1 sequence (Q16678 whole entry): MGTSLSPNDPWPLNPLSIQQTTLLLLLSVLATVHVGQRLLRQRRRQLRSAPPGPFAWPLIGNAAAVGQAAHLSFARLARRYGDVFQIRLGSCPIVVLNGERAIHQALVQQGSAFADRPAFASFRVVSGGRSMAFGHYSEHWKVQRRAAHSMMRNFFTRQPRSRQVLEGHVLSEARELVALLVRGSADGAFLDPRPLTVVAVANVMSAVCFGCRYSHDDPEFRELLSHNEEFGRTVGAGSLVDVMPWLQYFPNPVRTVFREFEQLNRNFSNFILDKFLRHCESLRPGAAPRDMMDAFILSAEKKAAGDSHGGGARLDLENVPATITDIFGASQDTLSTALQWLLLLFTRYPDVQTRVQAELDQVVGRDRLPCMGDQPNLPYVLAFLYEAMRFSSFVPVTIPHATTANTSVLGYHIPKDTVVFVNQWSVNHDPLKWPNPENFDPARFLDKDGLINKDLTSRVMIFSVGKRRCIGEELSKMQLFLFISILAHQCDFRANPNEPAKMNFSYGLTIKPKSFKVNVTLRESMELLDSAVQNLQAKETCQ

Homo sapiens [3] = organism: Homo sapiens; assay: Selectivity index, ratio of IC50 for human recombinant CYP1A2 to IC50 for human recombinant CYP1B1 using 7-ethoxyresorufin as substrate in presence of glucose-6-phosphate, glucose-6-phosphate dehydrogenase and NADPH-generating system by fluorometry
Cytochrome P450 1A2 = target: T2, Cytochrome P450 1A2 (Homo sapiens, UniProt P05177); assay: Inhibition of human recombinant CYP1A2 using 7-ethoxyresorufin as substrate in presence of glucose-6-phosphate, glucose-6-phosphate dehydrogenase and NADPH-generating system incubated for 50 mins by fluorometry; assay type: ADME
T2 sequence (P05177 whole entry): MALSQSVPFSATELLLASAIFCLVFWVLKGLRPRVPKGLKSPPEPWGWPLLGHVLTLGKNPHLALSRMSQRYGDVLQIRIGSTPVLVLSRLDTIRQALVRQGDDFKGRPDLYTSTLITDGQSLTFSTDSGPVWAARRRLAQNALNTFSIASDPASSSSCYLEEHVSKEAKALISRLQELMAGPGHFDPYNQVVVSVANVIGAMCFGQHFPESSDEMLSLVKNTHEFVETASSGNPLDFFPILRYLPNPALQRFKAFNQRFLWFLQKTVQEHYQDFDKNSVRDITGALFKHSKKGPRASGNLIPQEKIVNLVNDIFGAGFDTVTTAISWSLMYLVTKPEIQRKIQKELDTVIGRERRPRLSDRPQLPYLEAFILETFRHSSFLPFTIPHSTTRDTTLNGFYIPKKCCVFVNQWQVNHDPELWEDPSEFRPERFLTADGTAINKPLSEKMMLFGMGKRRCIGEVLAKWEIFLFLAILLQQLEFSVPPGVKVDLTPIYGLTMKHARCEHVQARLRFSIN

Cytochrome P450 1B1 [4] = target: T1, Cytochrome P450 1B1; assay: Potency index, ratio of IC50 for ANF to IC50 for test compound for inhibition of human recombinant CYP1B1 using 7-ethoxyresorufin as substrate in presence of glucose-6-phosphate, glucose-6-phosphate dehydrogenase and NADPH-generating system incubated for 35 mins by fluorometry
Cytochrome P450 1A1 = target: T3, Cytochrome P450 1A1 (Homo sapiens, UniProt P04798); assay: Inhibition of human recombinant CYP1A1 using 7-ethoxyresorufin as substrate in presence of glucose-6-phosphate, glucose-6-phosphate dehydrogenase and NADPH-generating system incubated for 15 mins by fluorometry; assay type: ADME
T3 sequence (P04798 whole entry): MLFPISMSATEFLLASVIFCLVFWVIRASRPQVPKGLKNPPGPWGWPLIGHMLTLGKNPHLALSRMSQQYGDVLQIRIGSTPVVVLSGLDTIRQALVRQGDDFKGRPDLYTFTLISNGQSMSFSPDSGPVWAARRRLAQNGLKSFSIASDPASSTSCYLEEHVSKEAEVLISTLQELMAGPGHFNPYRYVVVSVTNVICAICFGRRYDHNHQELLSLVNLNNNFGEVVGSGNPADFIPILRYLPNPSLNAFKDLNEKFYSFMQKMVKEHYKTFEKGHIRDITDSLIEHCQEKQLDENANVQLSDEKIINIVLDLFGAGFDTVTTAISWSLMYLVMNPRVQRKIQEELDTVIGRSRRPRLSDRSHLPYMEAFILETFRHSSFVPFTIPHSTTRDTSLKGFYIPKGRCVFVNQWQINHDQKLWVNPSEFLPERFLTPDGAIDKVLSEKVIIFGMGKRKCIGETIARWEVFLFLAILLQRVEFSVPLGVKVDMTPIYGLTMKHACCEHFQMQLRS

[5] = Aqueous solubility of the compound; assay type: physicochemical; details: buffer

SMILES | Ratio IC50 (Homo sapiens [1]) | IC50 (Cytochrome P450 1B1 [2]) | Ratio IC50 (Homo sapiens [3]) | IC50 (Cytochrome P450 1A2) | relative potency vs ANF (IC50 ratio) at 35 min (Cytochrome P450 1B1 [4]) | IC50 (Cytochrome P450 1A1) | solubility [5] | selectivity ratio at 35 min (Cytochrome P450 1B1 [4]; read-out: Ratio IC50)
O=c1cc(-c2cccc(Cl)c2)oc2c1ccc1ccccc12 | 10.6 | 0.49 nM | 150 | 73.6 nM | 12 | 5.2 nM | – | –
CN1CCN(c2ccc(-c3cc(=O)c4ccc5ccccc5c4o3)cc2)CC1 | 2.4 | 63.8 nM | – | > 1000 nM | – | 153 nM | > 20 mg/mL | –
O=c1cc(-c2cccc(C(F)(F)F)c2)oc2c1ccc1ccccc12 | 32.1 | 0.52 nM | 181 | 94.2 nM | – | 16.7 nM | – | 11.3
S=c1cc(-c2ccc(Cl)cc2)oc2c1ccc1ccccc12 | 6 | 1.6 nM | 33.3 | 53.2 nM | 3 | 9.6 nM | – | –
